Measured values: patent publication US20140314787A1, “Treatment for neurodegenerative diseases” (NOVARTIS FORSCHUNGSSTIFTUNG, ZWEIGNIEDERLASSUNG, FRIEDRICH …, priority 2011, published 2014)

What was measured:
[1] = system: FSOD mice (mutant SOD1(G93A)); assay: climb test of motor performance in FSOD mice; type: in vivo; settings: for motor performance: figure legend (FIG. 9, FIG. 10)
Description: Climb test: Neurodegenerative status of the mice was tested using a climb test device developed by some of the inventors. This device is based on a flappable wire meshwork platform (10×10 cm) suspended from one corner by a rigid boom. The platform is suspended about 40 cm above a surface. The platform is fully open and the test is performed in ambient light. During the test, mice are prevented of climbing the boom by a transparent plastic disk. For the performance of the test, mice were gently transferred to the platform and allowed to explore it for 2 minutes. […] As soon as the mice reached the upper surface of the grid (all four limbs on the same side), the grid was gently flipped over so that the mice were not be allowed to rest. The number of performed climbs in the test period was counted, the test period being 11 minutes (5 min and 30 min variants have been tested as well). The climb movement to be performed by the mice involves a forceful yet brief push with fore- and hind-limbs, thus mimicking short-lived but powerful movements that are known to recruit fast motoneurons.
At day P27, mice were treated either with Eer-I (1 μg/g in 150 mM NaCl, s.c., daily) or with saline. Mice were tested at P29 and at P32.
On day P47 treatment was stopped and the mice were tested 2 days later.
Treatment dose was 1 μg/g in 150 mM NaCl, s.c., daily. Mice were treated and tested at baseline (p32), and thereafter tested in the climb test at 38, 43, 56 days of age.

[2] = biological target: T1, VCP (Homo sapiens, UniProt P55072); settings: literature (Chou T F et al. 2011); cited from earlier work
T1 sequence (P55072 whole entry): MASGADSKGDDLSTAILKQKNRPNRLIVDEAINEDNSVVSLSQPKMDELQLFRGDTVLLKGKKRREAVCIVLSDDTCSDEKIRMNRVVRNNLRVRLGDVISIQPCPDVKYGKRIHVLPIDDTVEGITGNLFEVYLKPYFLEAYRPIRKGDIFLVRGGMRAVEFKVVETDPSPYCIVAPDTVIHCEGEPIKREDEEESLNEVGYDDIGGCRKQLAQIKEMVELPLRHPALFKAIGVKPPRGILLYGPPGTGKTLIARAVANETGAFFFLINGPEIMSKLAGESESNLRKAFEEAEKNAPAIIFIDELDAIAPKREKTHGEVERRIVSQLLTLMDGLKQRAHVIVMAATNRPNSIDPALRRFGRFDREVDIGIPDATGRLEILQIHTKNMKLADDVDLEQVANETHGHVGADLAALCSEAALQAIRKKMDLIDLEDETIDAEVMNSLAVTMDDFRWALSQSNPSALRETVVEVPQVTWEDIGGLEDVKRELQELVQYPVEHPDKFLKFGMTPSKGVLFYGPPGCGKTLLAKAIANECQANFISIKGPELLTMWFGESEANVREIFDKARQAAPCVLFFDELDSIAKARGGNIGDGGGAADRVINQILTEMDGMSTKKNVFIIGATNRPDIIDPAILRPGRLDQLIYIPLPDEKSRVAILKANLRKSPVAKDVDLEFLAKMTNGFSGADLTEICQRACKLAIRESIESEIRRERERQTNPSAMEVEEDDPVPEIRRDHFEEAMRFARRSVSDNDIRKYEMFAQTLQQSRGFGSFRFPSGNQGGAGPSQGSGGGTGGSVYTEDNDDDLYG

[3] = system: FSOD mice (mutant SOD1(G93A)); assay: grid test of motor performance / muscle strength in FSOD mice; type: in vivo
Description: Motor performance was assessed by grid test, a standard task for the quantification of muscle strength and neurological impairment.

[4] = body weight recording in treated mice; type: in vivo
Description: Body weight was recorded at P45, P65, P85 and then at 5-7 days intervals. Five mice per group were followed, representative individuals are shown.

[5] = system: Mutant SOD1(G93A) transgenic mice; assay: survival of mutant SOD1(G93A) transgenic mice; type: in vivo
Description: Survival was determined up to the day of death or euthanasia (according to the termination criteria of a righting time >30 sec).

[6] = system: VCP; assay: VCP immunostaining intensity in lumbar spinal cord motoneurons; type: in vivo, mice
Description: After washing in PBS, lumbar (L2-L5) spinal cord was cryoprotected overnight in 30% sucrose. Lumbar spinal cord was embedded in OCT and sectioned at 50 μm. Sections were blocked in PBS-3% BSA −0.3% Triton X 100, and incubated double-overnight at 4 C in the same buffer plus anti VCP monoclonal antibody (Affinity Bioreagents) diluted 1:10,000 and polyclonal anti VAChT (Sigma) 1:1000. Sections were then briefly washed with PBS and incubated for 120 min at RT with goat-anti-rabbit (Alexa 647, Invitrogen) or goat-anti-mouse (Alexa 488, Invitrogen). Confocal images were acquired using an Zeiss LSM700 microscope, fitted with a 20×air objective. Images were processed using Imaris software. For the analysis of VCP labeling intensities, data were acquired with identical confocal settings, ensuring that signals at the brightest cells were not saturated, and that background levels outside clusters were still detectable. Images were then analyzed quantitatively using Image-Pro 5 software (Media Cybernetics). Signal intensities were acquired within areas inside cells, excluding areas lacking signal; background levels outside cells were subtracted from these values.

[7] = biological target: T1, VCP; settings: literature (Wang Q et al. 2008, 2010); cited from earlier work
[8] = 1 μg/g s.c. daily from weaning (P20), vs untreated
[9] = FSOD mice treated from P20, s.c. daily
[10] = FSOD mice treated from P63, s.c. daily

For c1ccc(CNc2nc(NCc3ccccc3)c3ccccc3n2)cc1 [DBEQ, N^2,N^4-Dibenzylquinazoline-2,4-diamine], the motor performance ([1]; FSOD mice) is given as “improves motor performance”, the “motor performance in the climb test” value ([1]; three FSOD mice, 1 μg/g s.c. daily after day 29, tested at P31, P34, 37 and 45) is given as “progressive improvement in motor performance reaching the range of wt mice” and the “VCP inhibition (mode)” value [2] is given as “reversible, ATP-competitive direct VCP inhibitor”.
In the case of CC1(C)C(N(O)C(=O)Nc2ccc(Cl)cc2)N(c2ccc(Cl)cc2)C(=O)N1CC(=O)NN=CC=Cc1ccc([N+](=O)[O-])o1 (stereo not shown) [Eer-I, 3-(4-Chlorophenyl)-4-[[[(4-chlorophenyl)amino]carbonyl]hydroxyamino]-5,5-dimethyl-2-oxo-1-imidazolidineacetic acid 2-[3-(5-nitro-2-furanyl)-2-propen-1-ylidene]hydrazide], the “grid test performance soon after beginning of treatment” value ([3]; 1 μg/g s.c. daily from P63) is reported as “fast improvement in performance”, the “grid test performance vs untreated counterparts” value ([3]; 1 μg/g s.c. daily from P63) is reported as “performed significantly better than their untreated counterparts” and the “decline in muscle strength over time (grid test)” value [3, 8] is reported as “significantly slower decline”. The “grid test performance at the earliest time point” value [3, 8] was “better performance”, the motor disability ([3]; FIG. 3 legend) was “delays motor disability” and the climb performance ([1]; FSOD mice (n=4), 1 μg/g s.c. daily from P18, tested at P27, P37 and P47) was “comparable to wt mice”. For the same molecule, the “climb performance upon resumption of the treatment” value ([1]; FSOD mice (n=4), after withdrawal) was “quickly improved”, the “treatment time until performance comparable with that before withdrawal” value ([1]; FSOD mice (n=4), resumption of treatment after withdrawal) was 2 to 5 days and the “climb performance after 2 days of withdrawal of treatment” value ([1]; FSOD mice (n=4), treatment stopped on P47, tested at P49) was “sharp drop in performance, down to a level comparable with that of untreated FSOD mice of the same age”. The “climb test performance (climb scores)” value [1, 9] was “markedly preserved performance, with climb scores comparable with WT mice”, the “duration of stable climb test performance” value [1, 9] was “stable up to day P65” and the “climb score at day P85” value [1, 10] was “returning in the range of untreated FSOD mice”. The climb test performance [1, 10] was “marked but transient improvement in performance”, the “increase of climb score” value [1, 10] was “up to four-fold” and the “climb test performance after 5 days of treatment” value ([1]; FSOD mice, 1 μg/g s.c. daily from P27) was “level comparable with wt”. The climb test performance ([1]; FSOD mice, 1 μg/g s.c. daily from P27, tested at P29 and P32, vs saline) was “marked improvement in performance”, the “performance in the climb test” value ([1]; FSOD mice, FIG. 4 legend) was “markedly improve” and the “performance in the climb test” value ([1]; FSOD mice, FIG. 7 legend) was “quickly restores performance”. For the same molecule, the body weight loss ([4]; FIG. 5 legend) was “delays body weight loss”, the “bodyweight of FSOD mice” value ([4]; 1 μg/g s.c. daily from P63) was “stabilized at a level lower than the littermates treated from weaning” and the “bodyweight of FSOD mice” value ([4]; 1 μg/g s.c. daily from weaning (P20)) was “stable bodyweight until day P140-145”. For the same molecule, the “body weight of wild type mice” value ([4]; wild type mice, 1 μg/g s.c. daily) was “expected progressive increase in body weight”, the “overt toxicity of the treatment” value ([4]; wild type mice, 1 μg/g s.c. daily, from body weight) was “lack of overt toxicity” and the “survival vs untreated mutant mice” value ([5]; 1 μg/g s.c. daily since weaning (P20), n=7 per group) was “survived significantly longer”. For the same molecule, the survival ([5]; FSOD mice, FIG. 6 legend) was “prolongs FSOD mice survival”, the “average cytoplasmic VCP staining intensity in motoneurons” value ([6]; FSOD mice treated with Eer-I vs FSOD and WT controls, lumbar spinal cord) was “significantly reduced (to an extent comparable with WT)” and the VCP upregulation ([6]; FSOD mice, FIG. 11 legend) was “reverses VCP upregulation”. For the same molecule, the “degradation of target misfolded proteins whose translocation and disposal is dependent upon VCP” value [7] was “prevent the degradation of target misfolded proteins”.
In the case of O=[N+]([O-])C=Cc1ccc2c(c1)OCO2 [Syk-inhibitor III, 3,4-Methylenedioxy-β-nitrostyrene], the motor performance ([1]; FSOD mice) is listed as “improves motor performance”, the “performance in the climb test” value ([1]; two mice, 1 μg/g s.c. daily, baseline p32, tested at 38, 43, 56 days of age) is listed as “markedly improved and reached the range of performance for WT mice” and the “VCP inhibition (mode)” value [2] is listed as “substantial efficacy as an irreversible inhibitor of the D2 ATPase site on VCP”.
